Data published in US12371454B2, “Cyclic peptide compound having Kras inhibitory action” (priority 2019, dated 2025).
Starred links: 1 amine or outer side, 2 acyl side, 3 side chain; linkers in the order of their positions; H or OH if unused. Positions of bridges follow the written chain, without caps; N, C: chain ends. Non-standard residues stand in square brackets, D forms with d. Residues, ends and D or L forms follow the SMILES beside them. *: point of attachment. hPhe(3-Cl-4-CF3) = N[C@@H](CCc1ccc(C(F)(F)F)c(Cl)c1)C(=O)O; X25 = CN([C@@H](Cc1ccc(C(F)F)cc1)C(=O)[*:2])[*:1]; 3Oxa8azabicyclo(3.2.1)octane = C1CC2COCC1N2*; NMePhe(4-Me) = CN[C@@H](Cc1ccc(C)cc1)C(=O)O; NMePhe(2-Me) = CN[C@@H](Cc1ccccc1C)C(=O)O; NMeAla(cPent) = CN[C@@H](CC1CCCC1)C(=O)O; NMeNva(5,5-F2) = CN[C@@H](CCC(F)F)C(=O)O; NMeGly(cPent) = CN[C@H](C(=O)O)C1CCCC1; NMe4Pal = CN[C@@H](Cc1ccncc1)C(=O)O; NMeCha = CN[C@@H](CC1CCCCC1)C(=O)O; NMeChg = CN[C@H](C(=O)O)C1CCCCC1; NMeI = CC[C@H](C)[C@H](NC)C(=O)O; NMeE = CN[C@@H](CCC(=O)O)C(=O)O; NMeD = CN[C@@H](CC(=O)O)C(=O)O; NMeL = CN[C@@H](CC(C)C)C(=O)O; NMeNva = CCC[C@H](NC)C(=O)O; NMeAbu = CC[C@H](NC)C(=O)O; NMeS = CN[C@@H](CO)C(=O)O; Morpholide = C1CN(*)CCO1; NMeA = CN[C@@H](C)C(=O)O; Pyrrolidide = C1CCN(*)C1; Ac5c = NC1(C(=O)O)CCCC1; Aze = O=C(O)[C@@H]1CCN1; Sar = CNCC(=O)O; Propyl = CCC*

Assays:
[1] = target: T1, Kras and SOS1 (biotin-tagged human Kras loaded with GDP, His-tagged human SOS1) (Homo sapiens, UniProt P01116, G12D); experiment: Protein-protein interaction inhibition between Kras and SOS1 (KrasGl2D-SOS PPI) using AlphaScreen; format: binding; details: AlphaScreen; biotin-tagged human Kras loaded with GDP, His-tagged human SOS1; read-out: KRAS G12D-SOS PPI IC50
T1 construct: made in house; host or cells: E. coli (stated for Kras only)
In short: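 AlphaScreen format: Ni donor beads capture His-SOS1, streptavidin acceptor beads capture biotinylated Kras (E. coli-expressed, GDP-loaded post-purification). Excite 680 nm, read 520-620 nm.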

[2] = tested on: Human pancreatic cancer cell line AsPC-1; experiment: Measurement of AsPC-1 cell growth inhibition (AsPC-1 CGI); format: cell-based; details: 96 h
In short: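 AsPC-1 cells in 15% FBS RPMI-1640 were exposed to test compound for 96 hours at 37° C, with CellTiter-Glo as endpoint.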

T1 sequence (P01116 1-188 isoform P01116-2 G12D): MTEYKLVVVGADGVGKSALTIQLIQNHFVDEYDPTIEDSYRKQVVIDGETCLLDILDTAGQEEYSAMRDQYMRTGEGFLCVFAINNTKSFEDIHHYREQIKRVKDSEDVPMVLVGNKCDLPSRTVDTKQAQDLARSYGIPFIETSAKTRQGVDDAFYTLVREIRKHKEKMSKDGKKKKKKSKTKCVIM

Row | SMILES | IC50 [1] | IC50 [2]
1 | CC[C@H](C)[C@@H]1NC(=O)[C@H](CC(C)C)N(C)C(=O)C[C@@H](C(=O)N(C)C)N(C)C(=O)[C@H](C2CCCC2)N(C)C(=O)C2(CCCC2)NC(=O)[C@H](CCC(F)F)N(C)C(=O)[C@H](CCc2ccc(C(F)(F)F)c(Cl)c2)NC(=O)CN(C)C(=O)[C@H](CC2CCCCC2)N(C)C(=O)[C@@H]2CCN2C(=O)[C@H](C)N(C)C1=O [Compound 1907] ([NMeL]I[NMeA][Aze][NMeCha][Sar][hPhe(3-Cl-4-CF3)][NMeNva(5,5-F2)][Ac5c][NMeGly(cPent)][NMeD]-NMe2; lactam N-11) | 1.3 nM | 20 to 50 nM
2 | CC(C)C[C@H]1C(=O)N[C@@H](C(C)C)C(=O)N(C)CC(=O)N(C)CC(=O)N(C)[C@@H](CC2CCCCC2)C(=O)N(C)CC(=O)N[C@@H](CCc2ccc(C(F)(F)F)c(Cl)c2)C(=O)N2CCC[C@H]2C(=O)NC2(CCCC2)C(=O)N(C)[C@@H](C2CCCCC2)C(=O)N(C)[C@H](C(=O)N2CCOCC2)CC(=O)N1C [Compound 1908] ([NMeL]V[Sar][Sar][NMeCha][Sar][hPhe(3-Cl-4-CF3)]P[Ac5c][NMeChg][NMeD]-Morpholide; lactam N-11) | 0.65 nM | 50 to 100 nM
3 | CC[C@H](C)[C@@H]1NC(=O)[C@H](CC(C)C)N(C)C(=O)C[C@@H](C(=O)N(C)C)N(C)C(=O)[C@H]([C@@H](C)CC)N(C)C(=O)C2(CCCC2)NC(=O)[C@H](CCC(=O)NC)N(C)C(=O)[C@H](CCc2ccc(C(F)(F)F)c(Cl)c2)NC(=O)CN(C)C(=O)[C@H](Cc2ccc(C)cc2)N(C)C(=O)[C@@H]2CCN2C(=O)[C@H](C)N(C)C1=O [Compound 1911] ([NMeL]I[NMeA][Aze][NMePhe(4-Me)][Sar][hPhe(3-Cl-4-CF3)][NMeE](NHMe)[Ac5c][NMeI][NMeD]-NMe2; lactam N-11) | 0.67 nM | 50 to 100 nM
4 | CC[C@H](C)[C@@H]1NC(=O)[C@H](CC(C)C)N(C)C(=O)C[C@@H](C(=O)N(C)C)N(C)C(=O)[C@H](C2CCCC2)N(C)C(=O)C2(CCCC2)NC(=O)[C@H](Cc2ccncc2)N(C)C(=O)[C@H](CCc2ccc(C(F)(F)F)c(Cl)c2)NC(=O)CN(C)C(=O)[C@H](CC2CCCCC2)N(C)C(=O)[C@@H]2CCN2C(=O)[C@H](C)N(C)C1=O [Compound 1913] ([NMeL]I[NMeA][Aze][NMeCha][Sar][hPhe(3-Cl-4-CF3)][NMe4Pal][Ac5c][NMeGly(cPent)][NMeD]-NMe2; lactam N-11) | 1.1 nM | 100 to 500 nM
5 | CC[C@H](C)[C@@H]1NC(=O)[C@H](CC)N(C)C(=O)C[C@@H](C(=O)N2CCOCC2)N(C)C(=O)[C@H](C2CCCCC2)N(C)C(=O)C2(CCCC2)NC(=O)[C@@H]2CCCN2C(=O)[C@H](CCc2ccc(C(F)(F)F)c(Cl)c2)NC(=O)CN(C)C(=O)[C@H](CC2CCCCC2)N(C)C(=O)CN(C)C(=O)CN(C)C1=O [Compound 1915] ([NMeAbu]I[Sar][Sar][NMeCha][Sar][hPhe(3-Cl-4-CF3)]P[Ac5c][NMeChg][NMeD]-Morpholide; lactam N-11) | 0.38 nM | 50 to 100 nM
6 | CCC[C@H]1C(=O)N[C@@H]([C@@H](C)CC)C(=O)N(C)CC(=O)N(C)CC(=O)N(C)[C@@H](CC2CCCC2)C(=O)N(C)CC(=O)N[C@@H](CCc2ccc(C(F)(F)F)c(Cl)c2)C(=O)N2CCC[C@H]2C(=O)NC2(CCCC2)C(=O)N(C)[C@@H](C2CCCCC2)C(=O)N(C)[C@H](C(=O)N2C3CCC2COC3)CC(=O)N1C [Compound 1916] ([NMeNva]I[Sar][Sar][NMeAla(cPent)][Sar][hPhe(3-Cl-4-CF3)]P[Ac5c][NMeChg][NMeD]-{3Oxa8azabicyclo(3.2.1)octane}; lactam N-11) | 0.99 nM | 100 to 500 nM
7 | CC[C@H](C)[C@@H]1NC(=O)[C@H](CC(C)C)N(C)C(=O)C[C@@H](C(=O)N(C)C)N(C)C(=O)[C@H](C2CCCC2)N(C)C(=O)C2(CCCC2)NC(=O)[C@H](CCC(=O)NC)N(C)C(=O)[C@H](CCc2ccc(C(F)(F)F)c(Cl)c2)NC(=O)CN(C)C(=O)[C@H](CC2CCCCC2)N(C)C(=O)[C@@H]2CCN2C(=O)[C@H](C)N(C)C1=O [Compound 1921] ([NMeL]I[NMeA][Aze][NMeCha][Sar][hPhe(3-Cl-4-CF3)][NMeE](NHMe)[Ac5c][NMeGly(cPent)][NMeD]-NMe2; lactam N-11) | 0.83 nM | 100 to 500 nM
8 | CC[C@H](C)[C@@H]1NC(=O)[C@H](CC(C)C)N(C)C(=O)C[C@@H](C(=O)N2CCOCC2)N(C)C(=O)[C@H](C2CCCCC2)N(C)C(=O)C2(CCCC2)NC(=O)[C@@H]2CCCN2C(=O)[C@H](CCc2ccc(C(F)(F)F)c(Cl)c2)NC(=O)CN(C)C(=O)[C@H](CC2CCCC2)N(C)C(=O)CN(C)C(=O)CN(C)C1=O [Compound 1923] ([NMeL]I[Sar][Sar][NMeAla(cPent)][Sar][hPhe(3-Cl-4-CF3)]P[Ac5c][NMeChg][NMeD]-Morpholide; lactam N-11) | 0.89 nM | 50 to 100 nM
9 | CC[C@H](C)[C@@H]1NC(=O)[C@H](CC(C)C)N(C)C(=O)C[C@@H](C(=O)N(C)C)N(C)C(=O)[C@H]([C@@H](C)CC)N(C)C(=O)C2(CCCC2)NC(=O)[C@H](Cc2ccccc2C)N(C)C(=O)[C@H](CCc2ccc(C(F)(F)F)c(Cl)c2)NC(=O)CN(C)C(=O)[C@H](Cc2ccc(C)cc2)N(C)C(=O)[C@@H]2CCN2C(=O)[C@H](C)N(C)C1=O [Compound 1924] ([NMeL]I[NMeA][Aze][NMePhe(4-Me)][Sar][hPhe(3-Cl-4-CF3)][NMePhe(2-Me)][Ac5c][NMeI][NMeD]-NMe2; lactam N-11) | 5.1 nM | 100 to 500 nM
10 | CC[C@H](C)[C@@H]1NC(=O)[C@H](CC(C)C)N(C)C(=O)C[C@@H](C(=O)N(C)C)N(C)C(=O)[C@H](C2CCCC2)N(C)C(=O)C2(CCCC2)NC(=O)[C@H](Cc2ccc(C(F)F)cc2)N(C)C(=O)[C@H](CCc2ccc(C(F)(F)F)c(Cl)c2)NC(=O)CN(C)C(=O)[C@H](CC2CCCCC2)N(C)C(=O)[C@@H]2CCN2C(=O)[C@H](C)N(C)C1=O [Compound 1926] ([NMeL]I[NMeA][Aze][NMeCha][Sar][hPhe(3-Cl-4-CF3)][X25][Ac5c][NMeGly(cPent)][NMeD]-NMe2; lactam N-11) | 21 nM | 100 to 500 nM
11 | CC(C)C[C@H]1C(=O)N[C@@H](C(C)C)C(=O)N(C)CC(=O)N(C)CC(=O)N(C)[C@@H](CC2CCCCC2)C(=O)N(C)CC(=O)N[C@@H](CCc2ccc(C(F)(F)F)c(Cl)c2)C(=O)N2CCC[C@H]2C(=O)NC2(CCCC2)C(=O)N(C)[C@@H](C2CCCCC2)C(=O)N(C)[C@H](C(=O)N2C3CCC2COC3)CC(=O)N1C [Compound 1928] ([NMeL]V[Sar][Sar][NMeCha][Sar][hPhe(3-Cl-4-CF3)]P[Ac5c][NMeChg][NMeD]-{3Oxa8azabicyclo(3.2.1)octane}; lactam N-11) | 0.5 nM | 100 to 500 nM
12 | CCCOC[C@H]1C(=O)N(C)CC(=O)N[C@@H](CCc2ccc(C(F)(F)F)c(Cl)c2)C(=O)N2CCC[C@H]2C(=O)NC2(CCCC2)C(=O)N(C)[C@@H](C2CCCCC2)C(=O)N(C)[C@H](C(=O)N2CCCC2)CC(=O)N(C)[C@@H](CC)C(=O)N[C@@H]([C@@H](C)CC)C(=O)N(C)CC(=O)N(C)CC(=O)N1C [Compound 1929] ([NMeAbu]I[Sar][Sar][NMeS](Propyl)[Sar][hPhe(3-Cl-4-CF3)]P[Ac5c][NMeChg][NMeD]-Pyrrolidide; lactam N-11) | 0.61 nM | 100 to 500 nM
